Laboratory results as given in US20050197350A1, “Novel quinoline, tetrahydroquinazoline, and pyrimidine derivatives and methods of treatment related to the use thereof” (TAISHO PHARMACEUTICAL CO., LTD., priority 2003, published 2005).

Test system: MCH receptors
Assay: MCH receptor activity class (method not given)
Conditions: MCH receptor activity class 1-3 (percent of control at 10^-7 M or IC50)

Question: Which class does the source give for `Cc1cc(Cl)ccc1NC(=S)N[C@H]1CC[C@@H](Nc2cc(N(C)C)c3ccccc3n2)CC1` [compound 2286] here?
Answer: 3 (Class 3 The value of percent of control at 10^−7 M was more than 60% or the value of IC50 was more than 200 nM.)

Question: With `CN(C)c1cc(N[C@H]2CC[C@@H](NC(=S)NCc3cccc4ccccc34)CC2)nc2ccccc12` [compound 2287] as the compound, how does the class read?
Answer: 3 (Class 3 The value of percent of control at 10^−7 M was more than 60% or the value of IC50 was more than 200 nM.)

Question: Which class does the source give for `COc1cccc(CNC(=S)N[C@H]2CC[C@@H](Nc3cc(N(C)C)c4ccccc4n3)CC2)c1OC` [compound 2288] here?
Answer: 3 (Class 3 The value of percent of control at 10^−7 M was more than 60% or the value of IC50 was more than 200 nM.)

Question: With `Cc1cc(C)c(NC(=S)N[C@H]2CC[C@@H](Nc3cc(N(C)C)c4ccccc4n3)CC2)cc1C` [compound 2289] as the compound, how does the class read?
Answer: 3 (Class 3 The value of percent of control at 10^−7 M was more than 60% or the value of IC50 was more than 200 nM.)

Question: How did the class turn out when `CN(C)c1cc(N[C@H]2CC[C@@H](NC(=S)Nc3ccccc3-c3ccccc3)CC2)nc2ccccc12` [compound 2290] was run?
Answer: 3 (Class 3 The value of percent of control at 10^−7 M was more than 60% or the value of IC50 was more than 200 nM.)

Question: `Cc1cc([N+](=O)[O-])ccc1NC(=S)N[C@H]1CC[C@@H](Nc2cc(N(C)C)c3ccccc3n2)CC1` [compound 2291] was tested. Which class did it give?
Answer: 3 (Class 3 The value of percent of control at 10^−7 M was more than 60% or the value of IC50 was more than 200 nM.)

Question: With `CN(C)c1cc(N[C@H]2CC[C@@H](NC(=S)NCc3cccc(Cl)c3)CC2)nc2ccccc12` [compound 2292] as the compound, how does the class read?
Answer: 3 (Class 3 The value of percent of control at 10^−7 M was more than 60% or the value of IC50 was more than 200 nM.)

Question: `CCOC(=O)c1cccc(NC(=S)N[C@H]2CC[C@@H](Nc3cc(N(C)C)c4ccccc4n3)CC2)c1` [compound 2293] was tested. Which class did it give?
Answer: 3 (Class 3 The value of percent of control at 10^−7 M was more than 60% or the value of IC50 was more than 200 nM.)

Question: For `CN(C)c1cc(N[C@H]2CC[C@@H](NC(=S)Nc3ccc(Cl)cc3C(F)(F)F)CC2)nc2ccccc12` [compound 2294], which class is on record?
Answer: 3 (Class 3 The value of percent of control at 10^−7 M was more than 60% or the value of IC50 was more than 200 nM.)

Question: How did the class turn out when `Cc1cc(F)ccc1NC(=S)N[C@H]1CC[C@@H](Nc2cc(N(C)C)c3ccccc3n2)CC1` [compound 2295] was run?
Answer: 3 (Class 3 The value of percent of control at 10^−7 M was more than 60% or the value of IC50 was more than 200 nM.)

Question: How did the class turn out when `COc1ccc(NC(=S)N[C@H]2CC[C@@H](Nc3cc(N(C)C)c4ccccc4n3)CC2)c(C)c1` [compound 2296] was run?
Answer: 3 (Class 3 The value of percent of control at 10^−7 M was more than 60% or the value of IC50 was more than 200 nM.)

Question: For `COc1cc(OC)c(NC(=S)N[C@H]2CC[C@@H](Nc3cc(N(C)C)c4ccccc4n3)CC2)cc1Cl` [compound 2297, N-(5-chloro-2,4-dimethoxyphenyl)-N′-(cis-4-{[4-(dimethylamino)quinolin-2-yl]amino}cyclohexyl)thiourea], which class is on record?
Answer: 1 (Class 1: The value of percent of control at 10^−7 M was less than 40% or the value of IC50 was less than 50 nM.)

Question: Which class does the source give for `C[C@@H](NC(=S)N[C@H]1CC[C@@H](Nc2cc(N(C)C)c3ccccc3n2)CC1)c1ccccc1` [compound 2298] here?
Answer: 3 (Class 3 The value of percent of control at 10^−7 M was more than 60% or the value of IC50 was more than 200 nM.)

Question: For `Cc1cccc(NC(=S)N[C@H]2CC[C@@H](Nc3cc(N(C)C)c4ccccc4n3)CC2)c1C` [compound 2299], which class is on record?
Answer: 3 (Class 3 The value of percent of control at 10^−7 M was more than 60% or the value of IC50 was more than 200 nM.)

Question: Which class does the source give for `CN(C)c1cc(N[C@H]2CC[C@@H](NC(=S)Nc3c(F)cc(Br)cc3Br)CC2)nc2ccccc12` [compound 2300, N-(2,4-dibromo-6-fluorophenyl)-N′-(cis-4-{[4-(dimethylamino)quinolin-2-yl]amino}cyclohexyl)thiourea] here?
Answer: 2 (Class 2: The value of percent of control at 10^−7 M was from 40% to 60% or the value of IC′50 was from 50 nM to 200 nM.)

Question: For `Cc1cc(Cl)cc(Cl)c1NC(=S)N[C@H]1CC[C@@H](Nc2cc(N(C)C)c3ccccc3n2)CC1` [compound 2301, N-(2,4-dichloro-6-methylphenyl)-N′-(cis-4-{[4-(dimethylamino)quinolin-2-yl]amino}cyclohexyl)thiourea], which class is on record?
Answer: 1 (Class 1: The value of percent of control at 10^−7 M was less than 40% or the value of IC50 was less than 50 nM.)

Question: Which class does the source give for `CCOc1ccccc1NC(=S)N[C@H]1CC[C@@H](Nc2cc(N(C)C)c3ccccc3n2)CC1` [compound 2302] here?
Answer: 3 (Class 3 The value of percent of control at 10^−7 M was more than 60% or the value of IC50 was more than 200 nM.)

Question: How did the class turn out when `Cc1cccc(C(C)C)c1NC(=S)N[C@H]1CC[C@@H](Nc2cc(N(C)C)c3ccccc3n2)CC1` [compound 2303] was run?
Answer: 3 (Class 3 The value of percent of control at 10^−7 M was more than 60% or the value of IC50 was more than 200 nM.)

Question: With `CN(C)c1cc(N[C@H]2CC[C@@H](NC(=S)Nc3ccc4c(c3)OCCO4)CC2)nc2ccccc12` [compound 2304] as the compound, how does the class read?
Answer: 3 (Class 3 The value of percent of control at 10^−7 M was more than 60% or the value of IC50 was more than 200 nM.)

Question: Which class does the source give for `CN(C)c1cc(N[C@H]2CC[C@@H](NC(=S)Nc3ccc4c(c3)OCO4)CC2)nc2ccccc12` [compound 2305] here?
Answer: 3 (Class 3 The value of percent of control at 10^−7 M was more than 60% or the value of IC50 was more than 200 nM.)

Question: For `Cc1c(Cl)cccc1NC(=S)N[C@H]1CC[C@@H](Nc2cc(N(C)C)c3ccccc3n2)CC1` [compound 2306], which class is on record?
Answer: 3 (Class 3 The value of percent of control at 10^−7 M was more than 60% or the value of IC50 was more than 200 nM.)

Question: For `CN(C)c1cc(N[C@H]2CC[C@@H](NC(=S)Nc3ccc(Br)cc3OC(F)(F)F)CC2)nc2ccccc12` [compound 2307], which class is on record?
Answer: 3 (Class 3 The value of percent of control at 10^−7 M was more than 60% or the value of IC50 was more than 200 nM.)

Question: For `COc1cc(NC(=S)N[C@H]2CC[C@@H](Nc3cc(N(C)C)c4ccccc4n3)CC2)c(OC)cc1Cl` [compound 2308], which class is on record?
Answer: 3 (Class 3 The value of percent of control at 10^−7 M was more than 60% or the value of IC50 was more than 200 nM.)

Question: How did the class turn out when `Cc1onc(-c2ccccc2)c1NC(=S)N[C@H]1CC[C@@H](Nc2cc(N(C)C)c3ccccc3n2)CC1` [compound 2309] was run?
Answer: 3 (Class 3 The value of percent of control at 10^−7 M was more than 60% or the value of IC50 was more than 200 nM.)

Question: How did the class turn out when `COC(=O)c1scc(C)c1NC(=S)N[C@H]1CC[C@@H](Nc2cc(N(C)C)c3ccccc3n2)CC1` [compound 2311] was run?
Answer: 2 (Class 2: The value of percent of control at 10^−7 M was from 40% to 60% or the value of IC′50 was from 50 nM to 200 nM.)

Question: With `COC(=O)c1sccc1NC(=S)N[C@H]1CC[C@@H](Nc2cc(N(C)C)c3ccccc3n2)CC1` [compound 2312] as the compound, how does the class read?
Answer: 3 (Class 3 The value of percent of control at 10^−7 M was more than 60% or the value of IC50 was more than 200 nM.)

Same assay, conditions: class by percent of control at 10^-7 M or IC50

Question: Which class does the source give for `Cc1cc(Br)ccc1NC(=S)N[C@H]1CC[C@@H](Nc2cc(N(C)C)c3ccccc3n2)CC1` [compound 2284] here?
Answer: 2 (Class 2: The value of percent of control at 10^−7 M was from 40% to 60% or the value of IC′50 was from 50 nM to 200 nM.)

Question: With `CN(C)c1cc(N[C@H]2CC[C@@H](NC(=S)Nc3ccc(Br)cc3C(F)(F)F)CC2)nc2ccccc12` [compound 2285] as the compound, how does the class read?
Answer: 2 (Class 2: The value of percent of control at 10^−7 M was from 40% to 60% or the value of IC′50 was from 50 nM to 200 nM.)
